# Experimental data: a compilation of properties of binary mixtures (doi:10.1021/je950317s)
# Assay: excess molar enthalpy (molar enthalpy of mixing); xn = mol fraction of the nth substance listed
# Details: 100 kPa
compound,measurement,setting,value
Cl/C=C/Cl + CC(C)CC(C)(C)C,excess molar enthalpy,"293.15 K, x1 = 0.1328",0.0519 kcal/mol
same,excess molar enthalpy,"293.15 K, x1 = 0.1885",0.0681 kcal/mol
same,excess molar enthalpy,"293.15 K, x1 = 0.2561",0.0923 kcal/mol
same,excess molar enthalpy,"293.15 K, x1 = 0.3253",0.111 kcal/mol
same,excess molar enthalpy,"293.15 K, x1 = 0.415",0.124 kcal/mol
same,excess molar enthalpy,"293.15 K, x1 = 0.4532",0.13 kcal/mol
same,excess molar enthalpy,"293.15 K, x1 = 0.4584",0.134 kcal/mol
same,excess molar enthalpy,"293.15 K, x1 = 0.5167",0.141 kcal/mol
same,excess molar enthalpy,"293.15 K, x1 = 0.5332",0.138 kcal/mol
same,excess molar enthalpy,"293.15 K, x1 = 0.5571",0.138 kcal/mol
same,excess molar enthalpy,"293.15 K, x1 = 0.5777",0.139 kcal/mol
same,excess molar enthalpy,"293.15 K, x1 = 0.6055",0.139 kcal/mol
same,excess molar enthalpy,"293.15 K, x1 = 0.6468",0.135 kcal/mol
same,excess molar enthalpy,"293.15 K, x1 = 0.6554",0.133 kcal/mol
same,excess molar enthalpy,"293.15 K, x1 = 0.6658",0.131 kcal/mol
same,excess molar enthalpy,"293.15 K, x1 = 0.6824",0.13 kcal/mol
same,excess molar enthalpy,"293.15 K, x1 = 0.6926",0.127 kcal/mol
same,excess molar enthalpy,"293.15 K, x1 = 0.8092",0.0997 kcal/mol
same,excess molar enthalpy,"293.15 K, x1 = 0.8404",0.0875 kcal/mol
same,excess molar enthalpy,"293.15 K, x1 = 0.8988",0.0619 kcal/mol
same,excess molar enthalpy,"293.15 K, x1 = 0.9517",0.033 kcal/mol
Cl/C=C\Cl + CC(C)CC(C)(C)C,excess molar enthalpy,"293.15 K, x1 = 0.2119",0.142 kcal/mol
same,excess molar enthalpy,"293.15 K, x1 = 0.3627",0.209 kcal/mol
same,excess molar enthalpy,"293.15 K, x1 = 0.4911",0.228 kcal/mol
same,excess molar enthalpy,"293.15 K, x1 = 0.5812",0.226 kcal/mol
same,excess molar enthalpy,"293.15 K, x1 = 0.6622",0.21 kcal/mol
same,excess molar enthalpy,"293.15 K, x1 = 0.7314",0.188 kcal/mol
same,excess molar enthalpy,"293.15 K, x1 = 0.8061",0.155 kcal/mol
same,excess molar enthalpy,"293.15 K, x1 = 0.8696",0.116 kcal/mol
same,excess molar enthalpy,"293.15 K, x1 = 0.9434",0.0566 kcal/mol
Cl/C=C/Cl + CCCCCCC,excess molar enthalpy,"293.15 K, x1 = 0.1911",0.081 kcal/mol
same,excess molar enthalpy,"293.15 K, x1 = 0.2074",0.0851 kcal/mol
same,excess molar enthalpy,"293.15 K, x1 = 0.2453",0.102 kcal/mol
same,excess molar enthalpy,"293.15 K, x1 = 0.2905",0.111 kcal/mol
same,excess molar enthalpy,"293.15 K, x1 = 0.3272",0.128 kcal/mol
same,excess molar enthalpy,"293.15 K, x1 = 0.352",0.129 kcal/mol
same,excess molar enthalpy,"293.15 K, x1 = 0.3757",0.137 kcal/mol
same,excess molar enthalpy,"293.15 K, x1 = 0.4118",0.151 kcal/mol
same,excess molar enthalpy,"293.15 K, x1 = 0.4157",0.15 kcal/mol
same,excess molar enthalpy,"293.15 K, x1 = 0.452",0.158 kcal/mol
same,excess molar enthalpy,"293.15 K, x1 = 0.4756",0.158 kcal/mol
same,excess molar enthalpy,"293.15 K, x1 = 0.4978",0.161 kcal/mol
same,excess molar enthalpy,"293.15 K, x1 = 0.5334",0.162 kcal/mol
same,excess molar enthalpy,"293.15 K, x1 = 0.5472",0.163 kcal/mol
same,excess molar enthalpy,"293.15 K, x1 = 0.5627",0.165 kcal/mol
same,excess molar enthalpy,"293.15 K, x1 = 0.5821",0.162 kcal/mol
same,excess molar enthalpy,"293.15 K, x1 = 0.6074",0.164 kcal/mol
same,excess molar enthalpy,"293.15 K, x1 = 0.6429",0.157 kcal/mol
same,excess molar enthalpy,"293.15 K, x1 = 0.6534",0.156 kcal/mol
same,excess molar enthalpy,"293.15 K, x1 = 0.7038",0.145 kcal/mol
same,excess molar enthalpy,"293.15 K, x1 = 0.7761",0.125 kcal/mol
same,excess molar enthalpy,"293.15 K, x1 = 0.8005",0.117 kcal/mol
same,excess molar enthalpy,"293.15 K, x1 = 0.907",0.0655 kcal/mol
same,excess molar enthalpy,"293.15 K, x1 = 0.9624",0.0301 kcal/mol
Cl/C=C\Cl + CCCCCCC,excess molar enthalpy,"313.15 K, x1 = 0.0572",0.0485 kcal/mol
same,excess molar enthalpy,"313.15 K, x1 = 0.2014",0.148 kcal/mol
same,excess molar enthalpy,"313.15 K, x1 = 0.3465",0.218 kcal/mol
same,excess molar enthalpy,"313.15 K, x1 = 0.4595",0.245 kcal/mol
same,excess molar enthalpy,"313.15 K, x1 = 0.5694",0.24 kcal/mol
same,excess molar enthalpy,"313.15 K, x1 = 0.6673",0.221 kcal/mol
same,excess molar enthalpy,"313.15 K, x1 = 0.7579",0.183 kcal/mol
same,excess molar enthalpy,"313.15 K, x1 = 0.8409",0.137 kcal/mol
same,excess molar enthalpy,"313.15 K, x1 = 0.9317",0.0652 kcal/mol
Cl/C=C/Cl + CCCCCCCCCC,excess molar enthalpy,"293.15 K, x1 = 0.0575",0.022 kcal/mol
same,excess molar enthalpy,"293.15 K, x1 = 0.1583",0.0636 kcal/mol
same,excess molar enthalpy,"293.15 K, x1 = 0.2175",0.0865 kcal/mol
same,excess molar enthalpy,"293.15 K, x1 = 0.2316",0.0944 kcal/mol
same,excess molar enthalpy,"293.15 K, x1 = 0.2585",0.106 kcal/mol
same,excess molar enthalpy,"293.15 K, x1 = 0.3396",0.132 kcal/mol
same,excess molar enthalpy,"293.15 K, x1 = 0.3972",0.152 kcal/mol
same,excess molar enthalpy,"293.15 K, x1 = 0.4202",0.16 kcal/mol
same,excess molar enthalpy,"293.15 K, x1 = 0.4829",0.168 kcal/mol
same,excess molar enthalpy,"293.15 K, x1 = 0.5312",0.179 kcal/mol
same,excess molar enthalpy,"293.15 K, x1 = 0.5522",0.178 kcal/mol
same,excess molar enthalpy,"293.15 K, x1 = 0.5739",0.175 kcal/mol
same,excess molar enthalpy,"293.15 K, x1 = 0.6031",0.175 kcal/mol
same,excess molar enthalpy,"293.15 K, x1 = 0.6375",0.178 kcal/mol
same,excess molar enthalpy,"293.15 K, x1 = 0.6555",0.176 kcal/mol
same,excess molar enthalpy,"293.15 K, x1 = 0.6923",0.165 kcal/mol
same,excess molar enthalpy,"293.15 K, x1 = 0.6977",0.166 kcal/mol
same,excess molar enthalpy,"293.15 K, x1 = 0.7284",0.163 kcal/mol
same,excess molar enthalpy,"293.15 K, x1 = 0.7393",0.161 kcal/mol
same,excess molar enthalpy,"293.15 K, x1 = 0.7653",0.148 kcal/mol
same,excess molar enthalpy,"293.15 K, x1 = 0.7812",0.144 kcal/mol
same,excess molar enthalpy,"293.15 K, x1 = 0.8229",0.127 kcal/mol
same,excess molar enthalpy,"293.15 K, x1 = 0.8478",0.116 kcal/mol
same,excess molar enthalpy,"293.15 K, x1 = 0.9335",0.0602 kcal/mol
same,excess molar enthalpy,"293.15 K, x1 = 0.9785",0.0213 kcal/mol
Cl/C=C\Cl + CCCCCCCCCC,excess molar enthalpy,"293.15 K, x1 = 0.2397",0.171 kcal/mol
same,excess molar enthalpy,"293.15 K, x1 = 0.4025",0.253 kcal/mol
same,excess molar enthalpy,"293.15 K, x1 = 0.6996",0.239 kcal/mol
same,excess molar enthalpy,"293.15 K, x1 = 0.7635",0.211 kcal/mol
same,excess molar enthalpy,"293.15 K, x1 = 0.9492",0.0662 kcal/mol
